Test results reported in patent US6716829B2, “Aldosterone antagonist and cyclooxygenase-2 inhibitor combination therapy to prevent or treat inflammation-related cardiovascular disorders” (Pharmacia Corporation, priority 2000, dated 2004).
“And” between values parts separate entries of the source, which are not always exact repeats. Equal values may be shown once. “Also recorded” adds a separate entry of the source.

What was measured:
[1] = system: osteopontin; experiment: Assay B: osteopontin immunohistochemistry in the heart; format: in vivo, Male Sprague Dawley rats; settings: aldosterone-infused rats, eplerenone 100 mpk, increased dietary potassium group
Procedure: Assay B: In Vivo Aldosterone Infusion Model Male Sprague Dawley rats (n=39; BW=250 g) 2. Aldosterone (0.75 mg/hr, sc via alzet minipump) 2. […] Determination of osteopontin and COX-2 was performed by quantitative RT-PCR (Taqman). Osteopontin was also identified in the heart by immunohistochemistry.

[2] = system: myocardial injury; experiment: Assay C: histopathologic analysis, semi-quantitative myocardial injury score 0 to 4; format: in vivo, Male Sprague-Dawley rats; settings: for Myocardial injury / vascular inflammatory damage (histopathology): aldosterone + salt, 7, 14, 30 days, eplerenone 100 mg/kg/day; for Myocardia 1 Necrosis (0-4): eplerenone dose 100 mg/kg/day
Procedure: The procedure of Assay B was expanded upon in a further study. […] Myocardial tissue from animals in each treatment group was examined after 7, 14, or 30 days of treatment. […] Lesions were preceded by the expression and progressive upregulation of proinflammatory molecules. […] Prior to surgery the animals were individually weighed and placed in one of the following groups: […] Potassium chloride supplementation was added to the saline solution in order to prevent the potential hypokalemia associated with aldosterone excess. […] Louis, Mo.) was inserted subcutaneously at the nape of the neck. Aldosterone was administered at a dose of 0.75 µg/hour. […] Animals were sacrificed from each group (n=8-13) after 7, 14, or 30 days of treatment. Following exsanguination, hearts and kidneys were isolated, removed, rinsed in cold phosphate-buffered saline, and blotted dry. […] The equatorial regions of the heart were routinely processed into paraffin with an automated tissue processor (Hypercenter XP, Shandon/Lipshaw Inc., Pittsburgh, Pa.) and embedded into fresh paraffin apical side down (Shandon Embedding Center, Shandon/Lipshaw Inc.). Five and 10 µm sections were cut from each block of tissue using a Leica RM2035 rotary microtome (Leica Inc., Houston, Tex.) and mounted on Superfrost/Plus microscope slides (Fisher Scientific, Pittsburgh, Pa.). Ten […]m sections were stained with the collagen specific stain, Picrosirius Red F3BA (Saturated Picric Acid (Sigma Chemical, St. […] Waterbury, Conn.) (6). Mounted tissues were hydrated with water. […] Slides were coverslipped with #1 cover glass using Permount Histological Mounting Media (Fisher Scientific). Two slides mounted with 5 µm sections were cut for each animal. One slide was processed for H&E staining and one for Periodic Acid Schiff (PAS) staining. The H&E and PAS were used for pathological scoring of the hearts. Semi-quantification of myocardial injury was performed as described previously with minor modifications (7). Briefly, a scale from 0 to 4 was used to score the level of myocardial injury. A score of 0 represented no damage. […] Myocardial necrosis was defined as the presence of necrotic changes in cardiomyocytes such as nuclear pyknosis or karyolysis, non-contracting marginal wavy fibers and hypereosinophilia of the cytoplasm, or clear evidence of destruction of the cardiomyocyte membrane.

[3] = system: Collagen I; experiment: Assay C: Collagen I mRNA by TaqMan RT-PCR; format: in vivo, Male Sprague-Dawley rats; settings: for Collagen type-I message: at 30 days, compared to vehicle + salt controls; for Collagen-I (AU): collagen type I mRNA relative to cyclophilin, eplerenone dose 100 mg/kg/day
Procedure: The procedure of Assay B was expanded upon in a further study. […] Myocardial tissue from animals in each treatment group was examined after 7, 14, or 30 days of treatment.
Potassium chloride supplementation was added to the saline solution in order to prevent the potential hypokalemia associated with aldosterone excess.
At the time of the surgery, an Alzet 2002 osmotic minipump (Alza Corp., Palo Alto, Calif.) containing either vehicle (9% ethanol/87% propylene glycol/4% dH2O) or 1.0 mg/mL d-aldosterone (Sigma Chemical, St. Louis, Mo.) was inserted subcutaneously at the nape of the neck. Aldosterone was administered at a dose of 0.75 µg/hour. […] Animals were sacrificed from each group (n=8-13) after 7, 14, or 30 days of treatment.
The fluorogenic 5′-nuclease assay (TaqMan PCR) using Applied Biosystems' 7700 Sequence Detection System (Applied Biosystems, Foster City, Calif.) allowed for real time detection/quantitation of a specific gene by monitoring the increase in fluorescence of a gene-specific, dye-labeled oligonucleotide probe. Probes for target and reference genes were labeled at the 5′-end with a 6-carboxyfluorescein (6FAM) reporter dye and at the 3′-end with a 6-carboxy-N,N,N′,N′-tetramethylrhodamine (TAMRA) quencher dye. When the probe was annealed to the target gene, fluorescence of 6FAM was prevented by the close proximity of TAMRA. The exonuclease activity of Taq polymerase released the dyes from the oligonucleotide probe by displacing the probe from the target sequence resulting in fluorescence excitation in direct proportion to the amount of target message present. Data analysis was performed using the Sequence Detection System software from Applied Biosystems.
Primers and probes were designed using Oligo Primer Analysis Software, Version 5.0 (National Biosciences Inc. (NBI)-Wojciech Rychlik, Cascade, Colo.). Primers were synthesized by Life Technologies (Grand Island, N.Y.) and probes were synthesized by Applied Biosystems. Primer/probe sets were designed from known sequences of rat genes to be analyzed. All target gene values were normalized to a reference gene, constitutively expressed cyclophilin. Primer/probe sets sequences can be found in Table 8
RNA was extracted from frozen (−70° C.) left ventricle (LV) tissue (approximately 10-20 mg) using 1.5 mL RNA-STAT 60 according to manufacturer's instructions (Leedo Medical Laboratories, Inc., Houston, Tex.). Briefly, tissues were homogenized using a tissue homogenizer equipped with a 5 mm probe (Ultra-Turrax T8 Homogenizer, IKA Works, Inc. Wilmington, N.C.). Following homogenization, an equal volume of molecular grade chloroform (Sigma Chemical Co., St. Louis, Mo.) was incubated with periodic mixing for 10 min at room temperature. Samples were centrifuged at 12,000 g for 10 min and RNA was precipitated from the top layer by adding an equal volume of molecular grade isopropanol (Sigma Chemical Co.) followed by an overnight incubation at −80° C. RNA was pelleted by centrifugation at 12,000 g, washed with 75% ethanol, and solubilized in nuclease-free water (Promega, Madison, Wis.).
Double-stranded cDNA was synthesized by adding 400 ng RNA (4 uL) to a final volume of 20 uL containing 15% nuclease-free water (Promega, Madison, Wis.), 1×RT Buffer (Life Technologies, Grand Island, N.Y.), 10 mM DTT (Life Technologies), 0.5 mM each of dATP, dTTP, dGTP, dCTP (PE Biosystems, Foster City, Calif.), 2.5 μM Oligo d(T)15 (Oligo Therapeutics, Inc., Wilsonville, Oreg.), 40 units RNAsin (Promega), and 200 units SuperScript II Reverse Transcriptase (Life Technologies). The reactions were performed in thin-walled reaction tubes with caps (Applied Biosystems) to ensure accurate reaction temperatures.

[4] = 7-day protocol, score 0-4, individual rats and group Mean
[5] = group mean, data used for Table 15 (14 days of treatment)
[6] = group mean, data used for Table 16 (30 days of treatment)
[7] = individual rats, data used for Table 15 (14 days of treatment), incl. rat marked * excluded from statistics, listed as Aldosterone + salt
[8] = individual rats, data used for Table 16 (30 days of treatment), incl. rat marked * excluded from statistics, listed as Aldosterone + salt
[9] = mean ± SEM after 7 days of treatment
[10] = mean ± SEM after 14 days of treatment
[11] = mean ± SEM after 30 days of treatment
[12] = individual rats, data used for Table 15 (14 days of treatment), incl. rat marked * excluded from statistics, listed as Eplerenone + aldosterone + salt

SMILES	Osteopontin expression in the heart (immunostaining) [1]	Myocardial Necrosis (0-4) [2, 4]	Myocardial injury / vascular inflammatory damage (histopathology) [2]	Myocardial Necrosis (0-4) [2, 5]	Myocardial Necrosis (0-4) [2, 6]	Myocardia 1 Necrosis (0-4) [2, 9]	Myocardia 1 Necrosis (0-4) [2, 10]	Myocardia 1 Necrosis (0-4) [2, 11]	Collagen type-I message [3]	Collagen-I (AU) [3, 9]	Collagen-I (AU) [3, 10]	Collagen-I (AU) [3, 11]	Collagen-I mRNA (AU) [3, 5]	Collagen-I mRNA (AU) [3, 6]	further results
C[C@]12CCC(=O)C=C1CC[C@@H]1[C@@H]2[C@@H](O)C[C@]2(C=O)[C@@H](C(=O)CO)CC[C@@H]12 [Aldosterone]	clearly identified in the media of coronary arteries	0.0	focal arterial and myocardial alterations were observed starting at 14 days; also recorded: induced vascular inflammation and cardiac tissue damage	0.8	2.0	0.0 ± 0.0	0.8 ± 0.3	2.0 ± 0.4	modest increase	1.36 ± 0.14 AU	1.33 ± 0.24 AU	2.29 ± 0.47 AU	1.33 AU	2.29 AU	Myocardial Necrosis (0-4) [2, 7]: 0.0 (7×) and 1.0 (3×) and 3.0 (3×); Myocardial Necrosis (0-4) [2, 8]: 1.5 and 2.5 and 3.0 (2×) and 2.0 (2×) and 0.5 and 0.3 and 3.5; Collagen-I mRNA (AU) [3, 7]: 1.15 AU and 2.31 AU and 0.25 AU and 1.89 AU and 2.03 AU and 1.00 AU and 1.20 AU and 1.70 AU and 0.43 AU and 2.69 AU; Collagen-I mRNA (AU) [3, 8]: 2.20 AU and 2.02 AU (2×) and 5.88 AU and 1.05 AU and 1.32 AU and 1.98 AU and 1.63 AU and 2.54 AU
COC(=O)[C@@H]1CC2=CC(=O)CC[C@]2(C)[C@@]23O[C@@H]2C[C@@]2(C)[C@@H](CC[C@@]24CCC(=O)O4)[C@H]13 [Eplerenone]	prevented the expression of osteopontin	0.0	markedly attenuated	0.5	0.0	0.0 ± 0.0	0.5 ± 0.2	0.0 ± 0.0	modest increase	0.85 ± 0.15 AU	1.39 ± 0.21 AU	2.53 ± 0.20 AU	1.39 AU	2.53 AU	Osteopontin expression in the heart (immunostaining) ([1]; listed as eplerenone): prevention; Myocardial Necrosis (0-4) [2, 12]: 1.0 (3×) and 0.0 (7×) and 2.0; Myocardial Necrosis (0-4) ([2]; individual rats, data used for Table 16 (30 days of treatment), incl. rat marked * excluded from statistics): 0.0; Collagen-I mRNA (AU) [3, 12]: 0.86 AU (2×) and 0.90 AU and 1.65 AU and 1.14 AU and 1.44 AU and 0.50 AU and 1.24 AU and 1.69 AU and 2.03 AU and 3.02 AU; Collagen-I mRNA (AU) ([3]; individual rats, data used for Table 16 (30 days of treatment), incl. rat marked * excluded from statistics, listed as Eplerenone + aldosterone + salt): 1.89 AU and 1.54 AU and 2.65 AU (2×) and 1.97 AU and 2.98 AU and 2.90 AU and 2.88 AU and 3.35 AU and 2.01 AU
